{"source": "paper PMC9718554", "about": "“Discovery of a fragment hit compound targeting D-Ala:D-Ala ligase of bacterial peptidoglycan biosynthesis” (Journal of Enzyme Inhibition and Medicinal Chemistry, 2022)", "target": "T1, E. coli DdlB enzyme (D-alanine:D-alanine ligase) (Escherichia coli, UniProt P07862)", "T1 construct": "made in house; host or cells: E. coli", "experiment": "biochemical", "details": "read-out: DdlB RA; for remaining activity at 2000 µM: tested concentration 2.0 mM; for remaining activity at 1900 µM: tested concentration 1.9 mM; for remaining activity at 2200 µM: tested concentration 2.2 mM; for remaining activity at 2100 µM: tested concentration 2.1 mM; for remaining activity at 2400 µM: tested concentration 2.4 mM; for remaining activity at 2300 µM: tested concentration 2.3 mM; for remaining activity at 2600 µM: tested concentration 2.6 mM; for remaining activity at 3100 µM: tested concentration 3.1 mM", "note": "Like-named read-outs stand apart in the source and are kept apart here."}
{"smiles": "Oc1cc(-c2ccco2)n[nH]1", "note": "[Compound Y503-3143]", "values": [{"measurement": "remaining activity at 3300 µM", "setting": "tested concentration 3.3 mM", "value": 98, "unit": "%"}]}
{"smiles": "Cn1ncc(C(=O)O)c1C(=O)NCC1CCCO1", "note": "(stereo not shown) [Compound Y504-5972]", "values": [{"measurement": "remaining activity at 2000 µM", "value": 96, "unit": "%"}]}
{"smiles": "Cc1c(-c2cc(C(=O)O)n3nccc3n2)cnn1C", "note": "[Compound Y504-7677]", "values": [{"measurement": "remaining activity at 1900 µM", "value": 86, "unit": "%"}]}
{"smiles": "O=C(NCc1cc[nH]n1)[C@H]1CC=CC[C@H]1C(=O)O", "note": "[Compound Y504-7917]", "values": [{"measurement": "remaining activity at 2000 µM", "setting": "fragment library screening", "value": 88, "unit": "%"}]}
{"smiles": "Cc1onc(C(=O)O)c1COc1ccc([N+](=O)[O-])cc1", "note": "[Compound Y504-8568]", "values": [{"measurement": "remaining activity at 1800 µM", "setting": "fragment library screening, tested concentration 1.8 mM", "value": 97, "unit": "%"}]}
{"smiles": "Cc1cc(C(=O)O)n2nc(C)c(Cl)c2n1", "note": "[Compound Y504-8761]", "values": [{"measurement": "remaining activity at 2200 µM", "setting": "residual activity", "value": 98, "unit": "%"}]}
{"smiles": "OCCn1cc(Br)cn1", "note": "[Compound Y504-8814]", "values": [{"measurement": "remaining activity at 2900 µM", "setting": "tested concentration 2.9 mM", "value": 97, "unit": "%"}]}
{"smiles": "CCn1ncc(Cn2cc(Cl)c(N)n2)c1C", "note": "[Compound Y504-8851]", "values": [{"measurement": "remaining activity at 2100 µM", "value": 96, "unit": "%"}]}
{"smiles": "COCn1nc(C)c(N)c1C", "note": "[Compound Y504-8876]", "values": [{"measurement": "remaining activity at 3900 µM", "setting": "residual activity of DdlB, fragment library screening, tested concentration 3.9 mM", "value": 92, "unit": "%"}]}
{"smiles": "COC(=O)Cn1nc(C(F)F)c2c1CCCC2", "note": "[Compound Y504-8961]", "values": [{"measurement": "remaining activity at 2000 µM", "value": 94, "unit": "%"}]}
{"smiles": "CC1(C)CC(=O)c2cnc(NC3CC3)nc2C1", "note": "[Compound Y600-1530]", "values": [{"measurement": "remaining activity at 2400 µM", "value": 89, "unit": "%"}]}
{"smiles": "CCOC1CN=C2C(C#N)=CC=CN21", "note": "(stereo not shown) [Compound Y600-6204]", "values": [{"measurement": "remaining activity at 2200 µM", "value": 92, "unit": "%"}]}
{"smiles": "CCc1nc2ccc(C(N)=O)cc2nc1CC", "note": "[Compound Z601-0869]", "values": [{"measurement": "remaining activity at 2400 µM", "value": 88, "unit": "%"}]}
{"smiles": "CCn1c(C(=O)NC(C)C)cc2occc21", "note": "[Compound Z601-0941]", "values": [{"measurement": "remaining activity at 2300 µM", "value": 96, "unit": "%"}]}
{"smiles": "CCC1CCCCN1C(=O)C1CCCN1C(C)=O", "note": "(stereo not shown) [Compound Z601-4855]", "values": [{"measurement": "remaining activity at 2400 µM", "value": 74, "unit": "%"}]}
{"smiles": "Cc1ccc(Cn2ccnc2C(N)=O)cc1", "note": "[Compound Z601-5404]", "values": [{"measurement": "remaining activity at 2600 µM", "value": 99, "unit": "%"}]}
{"smiles": "CNC(=O)c1cc(C)nc2ccc(C(C)C)cc12", "note": "[Compound Z601-7136]", "values": [{"measurement": "remaining activity at 2100 µM", "value": 97, "unit": "%"}]}
{"smiles": "Cn1c(=O)cnc2ccc(N3CCCCCC3)nc21", "note": "[Compound Z601-8402]", "values": [{"measurement": "remaining activity at 2300 µM", "value": 83, "unit": "%"}]}
{"smiles": "CCS(=O)(=O)N1CCCN(C(=O)C2CC2)CC1", "note": "[Compound Z603-0719]", "values": [{"measurement": "remaining activity at 2300 µM", "value": 98, "unit": "%"}]}
{"smiles": "CC(C)n1nnc2cc(C(N)=O)ccc21", "note": "[Compound Z606-2126]", "values": [{"measurement": "remaining activity at 2400 µM", "value": 92, "unit": "%"}]}
{"smiles": "Cc1cc(C2CCCN2C(=O)c2ccc(F)c(F)c2)on1", "note": "(stereo not shown) [Compound Z632-2808]", "values": [{"measurement": "remaining activity at 1700 µM", "setting": "residual activity, tested concentration 1.7 mM", "value": 98, "unit": "%"}]}
{"smiles": "CCCc1nnc(-c2ccncc2)o1", "note": "[Compound Z632-7367]", "values": [{"measurement": "remaining activity at 2600 µM", "value": 94, "unit": "%"}]}
{"smiles": "CC(C)c1nnc(-c2cnccn2)o1", "note": "[Compound Z632-7479]", "values": [{"measurement": "remaining activity at 2600 µM", "value": 105, "unit": "%"}]}
{"smiles": "O=C1Nc2ncccc2OC1c1ccccc1", "note": "(stereo not shown) [FF01-0341]", "values": [{"measurement": "remaining activity at 2200 µM", "value": 106, "unit": "%"}]}
{"smiles": "CCn1c(C(=O)N2CCC(C(=O)O)CC2)cc2occc21", "note": "[FF01-0413]", "values": [{"measurement": "remaining activity at 1900 µM", "setting": "residual activity", "value": 110, "unit": "%"}]}
{"smiles": "Cc1cc2n(n1)CCC(=O)N2CCCC(=O)O", "note": "[FF01-0590]", "values": [{"measurement": "remaining activity at 2300 µM", "value": 92, "unit": "%"}]}
{"smiles": "CN1CCN(C)C1c1ccccc1O", "note": "[FF01-2467]", "values": [{"measurement": "remaining activity at 3100 µM", "value": 93, "unit": "%"}]}
{"smiles": "O=C(O)C1CCN(c2cnc(N3CCCC3)nc2)CC1", "note": "[FF01-3116]", "values": [{"measurement": "remaining activity at 2200 µM", "setting": "residual activity", "value": 69, "unit": "%"}]}
{"smiles": "CN1CCN(C(=O)CCC(=O)O)c2cccnc21", "note": "[FF01-3162]", "values": [{"measurement": "remaining activity at 2400 µM", "value": 65, "unit": "%"}]}
{"smiles": "CC1Cc2ccc(CN)cc2N1C(=O)c1ccccc1", "note": "(stereo not shown) [FF01-3167]", "values": [{"measurement": "remaining activity at 2300 µM", "setting": "residual activity", "value": 51, "unit": "%"}]}
{"smiles": "c1cnc2[nH]cc(CCN3CCNCC3)c2c1", "note": "[FF01-3277]", "values": [{"measurement": "remaining activity at 2200 µM", "setting": "residual activity", "value": 62, "unit": "%"}]}
{"smiles": "NCCCN1CCCC1=O", "note": "[FF01-3614]", "values": [{"measurement": "remaining activity at 4200 µM", "setting": "residual activity of DdlB, fragment library screening, tested concentration 4.2 mM", "value": 90, "unit": "%"}]}
{"smiles": "Cc1nn(C(C)C(=O)O)cc1Cl", "note": "(stereo not shown) [FF01-4477]", "values": [{"measurement": "remaining activity at 2700 µM", "setting": "residual activity of DdlB, fragment library screening, tested concentration 2.7 mM", "value": 89, "unit": "%"}]}
{"smiles": "Cc1nc(N)nc(C)c1CCC(=O)O", "note": "[FF01-4599]", "values": [{"measurement": "remaining activity at 3100 µM", "value": 91, "unit": "%"}]}
{"smiles": "Cc1nn(Cc2c(C(=O)O)noc2C)c(C)c1C", "note": "[FF01-5078]", "values": [{"measurement": "remaining activity at 2000 µM", "value": 81, "unit": "%"}]}
{"smiles": "O=C1CSCC(C(=O)O)N1", "note": "(stereo not shown) [FF01-5725]", "values": [{"measurement": "remaining activity at 3100 µM", "value": 107, "unit": "%"}]}
{"smiles": "N#CCS(=O)(=O)C1CCCCC1", "note": "[FF20-0194]", "values": [{"measurement": "remaining activity at 3200 µM", "setting": "residual activity of DdlB, fragment library screening, tested concentration 3.2 mM", "value": 101, "unit": "%"}]}
{"smiles": "COc1ccccc1Cc1noc([C@H]2CCCN2)n1", "note": "[FF20-0278]", "values": [{"measurement": "remaining activity at 1900 µM", "value": 87, "unit": "%"}]}
{"smiles": "Cn1cnc2c(c1=O)CCC(N)CC2", "note": "(stereo not shown) [FF20-0287]", "values": [{"measurement": "remaining activity at 3100 µM", "value": 91, "unit": "%"}]}
{"smiles": "Cc1nc(C(=O)O)c(C)n1C1CCN(C)CC1", "note": "[FF20-0714]", "values": [{"measurement": "remaining activity at 2100 µM", "setting": "residual activity", "value": 100, "unit": "%"}]}
